Data on seven compounds can be found in patent US20080132555A1, “PREPARATION AND UTILITY OF SUBSTITUTED PHENYLTETRAZOLES” (AUSPEX PHARMACEUTICALS, INC., priority 2006, published 2008).

For data set [1] the following is noted: 5 microgram per mL. Here is the method:
Liver microsomal stability assays were conducted at 1 mg per mL liver microsome protein with an NADPH-generating system in 2% NaHCO3 (2.2 mM NADPH, 25.6 mM glucose 6-phosphate, 6 units per mL glucose 6-phosphate dehydrogenase and 3.3 mM MgCl2). Test compounds were prepared as solutions in 20% acetonitrile-water and added to the assay mixture (final assay concentration 5 microgram per mL) and incubated at 37° C. Final concentration of acetonitrile in the assay were <1%. Aliquots (50 μL) were taken out at times 0, 15, 30, 45, and 60 minutes, and diluted with ice cold acetonitrile (200 μL) to stop the reactions. Samples were centrifuged at 12000 RPM for 10 minutes to precipitate proteins. Supernatants were transferred to microcentrifuge tubes and stored for LC/MS/MS analysis of the degradation half-life of the test compounds.

For data set [2] the following is noted: cited from earlier work.

For `[2H]C([2H])(O)c1c(Cl)nc(CCCC)n1Cc1ccc(-c2ccccc2-c2nn[nH]n2)cc1` [Example 1, d2-{2-Butyl-5-chloro-3-[2′-(2H-tetrazol-5-yl)-biphenyl-4-ylmethyl]-3H-imidazol-4-yl}-methanol], the “increase in the degradation half-life as compared to the non-isotopically enriched drug (losartan)” value in data set [1] is reported as 30-180%.

For the compound `[2H]C(c1nc(Cl)c(CO)n1Cc1ccc(-c2ccccc2-c2nn[nH]n2)cc1)C([2H])([2H])C([2H])([2H])C([2H])([2H])[2H]` (stereo not shown) [Example 2, d8-{2-Butyl-5-chloro-3-[2′-(2H-tetrazol-5-yl)-biphenyl-4-ylmethyl]-3H-imidazol-4-yl}-methanol], the “increase in the degradation half-life as compared to the non-isotopically enriched drug (losartan)” value in data set [1] is on record as 30-180%.

As for `[2H]C(O)c1c(Cl)nc(C([2H])C([2H])([2H])C([2H])([2H])C([2H])([2H])[2H])n1Cc1ccc(-c2ccccc2-c2nn[nH]n2)cc1` (stereo not shown) [Example 3, d9-{2-Butyl-5-chloro-3-[2′-(2H-tetrazol-5-yl)-biphenyl-4-ylmethyl]-3H-imidazol-4-yl}-methanol], the “increase in the degradation half-life as compared to the non-isotopically enriched drug (losartan)” value in data set [1] is given as 30-180%.

Turning to `[2H]C(c1nc(Cl)c(C([2H])([2H])O)n1Cc1ccc(-c2ccccc2-c2nn[nH]n2)cc1)C([2H])([2H])C([2H])([2H])C([2H])([2H])[2H]` (stereo not shown) [Example 4, d10-{2-Butyl-5-chloro-3-[2′-(2H-tetrazol-5-yl)-biphenyl-4-ylmethyl]-3H-imidazol-4-yl}-methanol], the “increase in the degradation half-life as compared to the non-isotopically enriched drug (losartan)” value in data set [1] is 30-180%.

On to `[2H]C(O)c1c(Cl)nc(C([2H])([2H])CCC)n1Cc1ccc(-c2ccccc2-c2nn[nH]n2)cc1` (stereo not shown) [Example 5, d3-{2-Butyl-5-chloro-3-[2′-(2H-tetrazol-5-yl)-biphenyl-4-ylmethyl]-3H-imidazol-4-yl}-methanol], for which the “increase in the degradation half-life as compared to the non-isotopically enriched drug (losartan)” value in data set [1] is recorded as 30-180%.

With `[2H]C([2H])(O)c1c(Cl)nc(C([2H])([2H])CCC)n1Cc1ccc(-c2ccccc2-c2nn[nH]n2)cc1` [Example 6, d4-{2-Butyl-5-chloro-3-[2′-(2H-tetrazol-5-yl)-biphenyl-4-ylmethyl]-3H-imidazol-4-yl}-methanol], the “increase in the degradation half-life as compared to the non-isotopically enriched drug (losartan)” value in data set [1] was 30-180%.

With `CCCCc1nc(Cl)c(CO)n1Cc1ccc(-c2ccccc2-c2nn[nH]n2)cc1` [losartan, Losartan], the “lowering of the rate of new-onset Diabetes Mellitus relative to the β-blocker atenolol” value in data set [2] is recorded as 25%.
